In ChEMBL document CHEMBL1138461, “4-Phenyl-7-azaindoles as potent and selective IKK2 inhibitors” (Bioorg Med Chem Lett, 2009):

Legend:
[1] = target: T1, Inhibitor of nuclear factor kappa-B kinase subunit beta (Homo sapiens, UniProt O14920); assay: Inhibition of human recombinant IKK2
T1 sequence (O14920 whole entry): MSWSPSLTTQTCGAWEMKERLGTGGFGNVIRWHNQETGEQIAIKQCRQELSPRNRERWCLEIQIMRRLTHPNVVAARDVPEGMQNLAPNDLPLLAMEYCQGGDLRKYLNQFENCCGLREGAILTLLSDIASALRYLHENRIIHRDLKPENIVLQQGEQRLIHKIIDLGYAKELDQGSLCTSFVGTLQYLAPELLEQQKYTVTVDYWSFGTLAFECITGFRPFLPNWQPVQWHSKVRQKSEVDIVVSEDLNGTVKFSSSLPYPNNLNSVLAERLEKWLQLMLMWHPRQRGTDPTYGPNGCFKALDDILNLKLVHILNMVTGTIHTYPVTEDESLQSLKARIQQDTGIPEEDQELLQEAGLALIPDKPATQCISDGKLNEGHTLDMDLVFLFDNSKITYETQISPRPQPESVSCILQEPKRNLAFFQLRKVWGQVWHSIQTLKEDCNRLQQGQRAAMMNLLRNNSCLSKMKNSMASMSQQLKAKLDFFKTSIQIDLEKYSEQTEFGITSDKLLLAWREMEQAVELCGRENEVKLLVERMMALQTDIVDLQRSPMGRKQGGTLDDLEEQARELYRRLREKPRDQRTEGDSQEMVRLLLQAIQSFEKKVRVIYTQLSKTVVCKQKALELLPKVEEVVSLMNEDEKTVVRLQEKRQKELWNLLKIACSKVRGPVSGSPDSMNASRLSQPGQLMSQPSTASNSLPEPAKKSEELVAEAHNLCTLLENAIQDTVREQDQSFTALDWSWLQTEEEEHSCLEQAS

[2] = target: T2, Inhibitor of nuclear factor kappa-B kinase subunit alpha (Homo sapiens, UniProt O15111); assay: Inhibition of human recombinant IKK1
T2 sequence (O15111 whole entry): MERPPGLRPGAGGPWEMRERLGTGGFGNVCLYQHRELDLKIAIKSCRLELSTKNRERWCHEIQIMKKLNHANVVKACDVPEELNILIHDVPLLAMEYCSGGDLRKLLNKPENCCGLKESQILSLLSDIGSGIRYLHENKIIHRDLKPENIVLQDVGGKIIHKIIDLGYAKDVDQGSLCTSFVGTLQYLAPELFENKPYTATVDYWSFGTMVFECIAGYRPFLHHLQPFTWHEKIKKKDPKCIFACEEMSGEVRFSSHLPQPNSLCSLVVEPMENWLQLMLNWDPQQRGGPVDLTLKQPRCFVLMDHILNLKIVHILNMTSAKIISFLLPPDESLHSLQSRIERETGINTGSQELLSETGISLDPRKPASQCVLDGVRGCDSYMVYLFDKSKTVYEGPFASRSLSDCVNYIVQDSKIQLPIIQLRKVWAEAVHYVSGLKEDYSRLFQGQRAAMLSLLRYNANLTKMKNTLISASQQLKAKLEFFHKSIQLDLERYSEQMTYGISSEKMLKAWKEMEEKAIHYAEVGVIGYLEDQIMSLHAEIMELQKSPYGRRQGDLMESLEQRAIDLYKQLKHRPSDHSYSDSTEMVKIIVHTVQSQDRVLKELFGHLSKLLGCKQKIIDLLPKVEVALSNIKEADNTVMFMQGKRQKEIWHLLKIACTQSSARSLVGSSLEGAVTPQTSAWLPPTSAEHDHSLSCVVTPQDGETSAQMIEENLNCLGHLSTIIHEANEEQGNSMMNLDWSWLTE

A549 = assay: Inhibition of TNF-alpha-induced NF-kappaB […] activation in human A549 cells; type: functional, cell-based
[3] = target: Rho-associated protein kinase 1 (Homo sapiens, UniProt Q13464); assay: Inhibition of human recombinant ROCK1
Chain of Rho-associated protein kinase 1 (Q13464 whole entry): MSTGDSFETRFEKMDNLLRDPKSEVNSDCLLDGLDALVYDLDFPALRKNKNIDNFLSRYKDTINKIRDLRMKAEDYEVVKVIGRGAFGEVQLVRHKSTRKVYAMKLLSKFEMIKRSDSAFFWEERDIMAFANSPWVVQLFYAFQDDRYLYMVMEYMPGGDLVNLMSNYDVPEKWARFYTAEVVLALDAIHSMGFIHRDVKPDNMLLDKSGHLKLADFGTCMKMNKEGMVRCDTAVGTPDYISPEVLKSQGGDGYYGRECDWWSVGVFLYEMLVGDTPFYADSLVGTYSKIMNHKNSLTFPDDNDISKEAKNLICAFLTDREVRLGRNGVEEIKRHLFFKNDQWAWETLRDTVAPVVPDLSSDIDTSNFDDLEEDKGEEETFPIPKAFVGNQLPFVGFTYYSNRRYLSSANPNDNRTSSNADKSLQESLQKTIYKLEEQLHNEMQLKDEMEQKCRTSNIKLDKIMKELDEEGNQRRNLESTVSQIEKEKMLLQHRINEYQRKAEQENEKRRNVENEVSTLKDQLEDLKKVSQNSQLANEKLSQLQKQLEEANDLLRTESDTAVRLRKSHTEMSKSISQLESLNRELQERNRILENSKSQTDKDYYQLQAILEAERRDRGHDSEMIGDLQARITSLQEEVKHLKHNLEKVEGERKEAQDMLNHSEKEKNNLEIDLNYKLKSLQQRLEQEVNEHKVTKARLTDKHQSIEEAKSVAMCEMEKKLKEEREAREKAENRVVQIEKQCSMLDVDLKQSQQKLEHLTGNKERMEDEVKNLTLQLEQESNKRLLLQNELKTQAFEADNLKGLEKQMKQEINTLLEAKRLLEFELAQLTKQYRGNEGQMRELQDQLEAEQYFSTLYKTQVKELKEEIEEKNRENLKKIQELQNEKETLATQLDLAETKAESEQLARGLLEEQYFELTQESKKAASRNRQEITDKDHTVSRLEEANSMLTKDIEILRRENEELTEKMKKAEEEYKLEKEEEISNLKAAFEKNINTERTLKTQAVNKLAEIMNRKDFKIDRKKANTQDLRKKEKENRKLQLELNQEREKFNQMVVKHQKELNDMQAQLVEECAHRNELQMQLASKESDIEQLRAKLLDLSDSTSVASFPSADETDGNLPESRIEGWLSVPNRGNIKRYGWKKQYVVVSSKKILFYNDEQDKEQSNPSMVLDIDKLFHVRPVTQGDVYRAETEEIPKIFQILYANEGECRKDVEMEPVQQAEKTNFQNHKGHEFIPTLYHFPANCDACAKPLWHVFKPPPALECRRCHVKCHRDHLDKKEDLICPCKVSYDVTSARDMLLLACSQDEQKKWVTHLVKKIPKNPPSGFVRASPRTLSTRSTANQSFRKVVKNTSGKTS

[4] = target: Glycogen synthase kinase-3 beta (Homo sapiens, UniProt P49841); assay: Inhibition of GSK3-beta kinase
Chain of Glycogen synthase kinase-3 beta (P49841 whole entry): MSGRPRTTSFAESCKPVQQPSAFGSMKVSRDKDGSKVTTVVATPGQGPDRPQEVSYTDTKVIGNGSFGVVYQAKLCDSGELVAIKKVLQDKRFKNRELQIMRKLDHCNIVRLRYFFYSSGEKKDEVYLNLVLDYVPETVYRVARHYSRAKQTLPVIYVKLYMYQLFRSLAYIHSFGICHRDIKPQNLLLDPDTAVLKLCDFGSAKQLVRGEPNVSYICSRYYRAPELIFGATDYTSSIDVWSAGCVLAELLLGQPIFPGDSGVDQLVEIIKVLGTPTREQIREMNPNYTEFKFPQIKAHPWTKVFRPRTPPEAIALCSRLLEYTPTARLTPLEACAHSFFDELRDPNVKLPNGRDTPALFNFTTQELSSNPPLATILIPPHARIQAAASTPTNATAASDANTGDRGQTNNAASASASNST

Aurora kinase B = Aurora kinase B (Homo sapiens, UniProt Q96GD4); assay: Inhibition of Aurora B kinase
Chain of Aurora kinase B (Q96GD4 whole entry): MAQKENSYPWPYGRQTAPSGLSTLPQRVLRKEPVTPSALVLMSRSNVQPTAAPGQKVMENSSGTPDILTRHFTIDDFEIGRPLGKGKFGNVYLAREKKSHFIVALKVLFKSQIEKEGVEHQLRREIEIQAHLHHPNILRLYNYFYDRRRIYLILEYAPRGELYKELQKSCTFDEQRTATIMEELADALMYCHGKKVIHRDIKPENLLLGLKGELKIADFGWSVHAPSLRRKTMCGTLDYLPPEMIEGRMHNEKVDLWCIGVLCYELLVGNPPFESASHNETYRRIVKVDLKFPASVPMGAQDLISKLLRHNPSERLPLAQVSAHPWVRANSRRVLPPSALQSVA

Row | SMILES | IC50 [1] | IC50 [2] | IC50 (A549) | IC50 [3] | IC50 [4] | IC50 (Aurora kinase B)
1 | O=S(=O)(c1ccc(-c2ccnc3[nH]ccc23)cc1)N1CCCC1 | 251 nM | 1260 nM |  |  |  | 
2 | NS(=O)(=O)c1ccc(-c2ccnc3[nH]ccc23)cc1 | 316 nM | 158 nM |  |  |  | 
3 | CNCCNS(=O)(=O)c1ccc(-c2ccnc3[nH]ccc23)cc1 | 31.6 nM | 316 nM |  |  |  | 
4 | NCCNS(=O)(=O)c1ccc(-c2ccnc3[nH]ccc23)cc1 | 39.8 nM | 251 nM | 631 nM | 20 nM |  | 
5 | O=S(=O)(NC1CNC1)c1ccc(-c2ccnc3[nH]ccc23)cc1 | 39.8 nM | 31.6 nM |  |  |  | 
6 | Cc1cc2c(-c3ccc(S(=O)(=O)N(C)CCO)cc3)ccnc2[nH]1 | 39.8 nM | 3160 nM |  | > 10000 nM | > 25100 nM | 1580 nM
7 | Cc1cc2c(-c3ccc(S(=O)(=O)N(C)C4CCS(=O)(=O)CC4)cc3)ccnc2[nH]1 | 39.8 nM | 1000 nM | 501 nM |  |  | 
8 | Cc1cc2c(-c3ccc(S(=O)(=O)NCCO)cc3)ccnc2[nH]1 | 20 nM | 316 nM | 501 nM |  |  | 
9 | CN(C)CCNS(=O)(=O)c1ccc(-c2ccnc3[nH]ccc23)cc1 | 200 nM | 794 nM |  |  |  | 
10 | NC(=O)c1ccc(-c2ccnc3[nH]ccc23)cc1 | 631 nM | 398 nM |  |  |  | 
11 | NCCNS(=O)(=O)c1ccc(-c2ccnc3[nH]c(CC(N)=O)cc23)cc1 | 20 nM | 158 nM | 3980 nM | 10000 nM |  | 
12 | Cc1cc2c(-c3ccc(S(=O)(=O)NCCN)cc3)ccnc2[nH]1 | 20 nM | 126 nM | 316 nM | 316 nM |  | 
13 | NS(=O)(=O)c1cccc(-c2ccnc3[nH]ccc23)c1 | 5010 nM | 1260 nM |  |  |  | 
14 | Cc1cc2c(-c3ccc(S(=O)(=O)NC4CCS(=O)(=O)CC4)cc3)ccnc2[nH]1 | 20 nM | 12.6 nM | 50.1 nM |  |  | 
15 | O=S1(=O)CCC(NS(=O)(=O)c2ccc(-c3ccnc4[nH]ccc34)cc2)CC1 | 79.4 nM | 50.1 nM |  |  |  | 
16 | Cc1cc2c(-c3ccc(NS(C)(=O)=O)cc3)ccnc2[nH]1 | 63.1 nM | 3980 nM | 1000 nM |  |  | 
17 | Cc1cc2c(-c3ccc(N(C)S(C)(=O)=O)cc3)ccnc2[nH]1 | 316 nM | 7940 nM | 2000 nM |  |  | 
18 | CS(=O)(=O)Nc1ccc(-c2ccnc3[nH]ccc23)cc1 | 158 nM | 794 nM |  |  |  | 
19 | c1ccc(-c2ccnc3[nH]ccc23)cc1 | 3160 nM | 3980 nM |  |  |  | 
20 | Cc1cc2c(-c3ccc(NS(=O)(=O)CCN)cc3)ccnc2[nH]1 | 15.8 nM | 126 nM | 2000 nM |  |  | 
